Laboratory results as given in the NIST ThermoML archive (doi:10.1021/je900093h).
Numbers after ± are expanded uncertainties.

Assay: molar heat capacity at saturation pressure
Details: Vacuum adiabatic calorimetry

CCCCCCCCCC(=O)OCC [ethyl decanoate]
Details | molar heat capacity [J/K/mol]
204.7 K, Crystal | 251.8 ± 2
205.19 K, Crystal | 252 ± 2
205.24 K, Crystal | 252.1 ± 2
205.57 K, Crystal | 252.3 ± 2
206.25 K, Crystal | 253.2 ± 2.1
206.66 K, Crystal | 253.6 ± 2.1
207.14 K, Crystal | 254 ± 2.1
207.19 K, Crystal | 254 ± 2.1
207.62 K, Crystal | 254.3 ± 2.1
208.2 K, Crystal | 255.2 ± 2.1
208.63 K, Crystal | 255.4 ± 2.1
209.09 K, Crystal | 255.7 ± 2.1
209.14 K, Crystal | 255.7 ± 2.1
209.67 K, Crystal | 256.4 ± 2.1
210.15 K, Crystal | 257 ± 2.1
210.59 K, Crystal | 257.3 ± 2.1
211.04 K, Crystal | 257.6 ± 2.1
211.09 K, Crystal | 257.8 ± 2.1
211.71 K, Crystal | 258.4 ± 2.1
212.1 K, Crystal | 259 ± 2.1
212.56 K, Crystal | 259.1 ± 2.1
212.98 K, Crystal | 259.7 ± 2.1
213.04 K, Crystal | 259.7 ± 2.1
213.75 K, Crystal | 260.3 ± 2.1
214.05 K, Crystal | 261 ± 2.1
214.52 K, Crystal | 261.2 ± 2.1
214.93 K, Crystal | 261.7 ± 2.1
214.99 K, Crystal | 261.6 ± 2.1
215.78 K, Crystal | 262.5 ± 2.1
215.99 K, Crystal | 263.2 ± 2.1
216.49 K, Crystal | 263.3 ± 2.1
216.87 K, Crystal | 263.9 ± 2.1
216.93 K, Crystal | 263.7 ± 2.1
217.81 K, Crystal | 264.8 ± 2.1
217.93 K, Crystal | 265.3 ± 2.1
218.46 K, Crystal | 265.4 ± 2.1
218.81 K, Crystal | 266.1 ± 2.2
218.87 K, Crystal | 265.9 ± 2.2
219.84 K, Crystal | 267.1 ± 2.2
219.87 K, Crystal | 267.5 ± 2.2
220.42 K, Crystal | 267.6 ± 2.2
220.75 K, Crystal | 268.4 ± 2.2
220.81 K, Crystal | 268.3 ± 2.2
221.82 K, Crystal | 269.7 ± 2.2
221.86 K, Crystal | 269.6 ± 2.2
222.39 K, Crystal | 270 ± 2.2
222.68 K, Crystal | 270.8 ± 2.2
222.75 K, Crystal | 270.5 ± 2.2
223.76 K, Crystal | 272.3 ± 2.2
223.88 K, Crystal | 272.1 ± 2.2
224.36 K, Crystal | 272.5 ± 2.2
224.61 K, Crystal | 273.3 ± 2.2
224.69 K, Crystal | 272.9 ± 2.2
225.69 K, Crystal | 274.9 ± 2.2
225.89 K, Crystal | 274.9 ± 2.2
226.33 K, Crystal | 275.1 ± 2.2
226.54 K, Crystal | 276.1 ± 2.2
226.62 K, Crystal | 275.6 ± 2.2
227.62 K, Crystal | 277.6 ± 2.2
227.9 K, Crystal | 277.8 ± 2.2
228.29 K, Crystal | 277.8 ± 2.2
228.46 K, Crystal | 278.4 ± 2.3
228.54 K, Crystal | 278.3 ± 2.3
229.55 K, Crystal | 280.1 ± 2.3
229.89 K, Crystal | 280.6 ± 2.3
230.26 K, Crystal | 280.8 ± 2.3
230.47 K, Crystal | 280.9 ± 2.3
232.23 K, Crystal | 284 ± 2.3
232.58 K, Crystal | 284.3 ± 2.3
234.19 K, Crystal | 287.3 ± 2.3
234.97 K, Crystal | 289 ± 2.3
236.16 K, Crystal | 291.1 ± 2.4
237.29 K, Crystal | 294.1 ± 2.4
238.11 K, Crystal | 296.8 ± 2.4
239.59 K, Crystal | 301 ± 2.4
240.07 K, Crystal | 303 ± 2.5
241.85 K, Crystal | 310.4 ± 2.5
244.07 K, Crystal | 325.4 ± 2.6
246.21 K, Crystal | 353.6 ± 2.9
254.4 K, Liquid | 386.7 ± 3.1
255.37 K, Liquid | 387 ± 3.1
256.65 K, Liquid | 387.2 ± 3.1
257.1 K, Liquid | 387.4 ± 3.1
257.94 K, Liquid | 387.5 ± 3.1
258.76 K, Liquid | 387.7 ± 3.1
259.18 K, Liquid | 387.9 ± 3.1
260.12 K, Liquid | 388.2 ± 3.1
260.59 K, Liquid | 388.3 ± 3.1
261.71 K, Liquid | 388.7 ± 3.1
262.29 K, Liquid | 388.9 ± 3.1
262.56 K, Liquid | 388.9 ± 3.1
264.24 K, Liquid | 389.3 ± 3.1
264.47 K, Liquid | 389.5 ± 3.1
264.54 K, Liquid | 389.4 ± 3.1
266.52 K, Liquid | 390 ± 3.1
266.65 K, Liquid | 390.1 ± 3.1
266.77 K, Liquid | 390.1 ± 3.1
268.5 K, Liquid | 390.8 ± 3.2
268.83 K, Liquid | 390.8 ± 3.2
269.31 K, Liquid | 391 ± 3.2
270.48 K, Liquid | 391.6 ± 3.2
271.01 K, Liquid | 391.6 ± 3.2
271.84 K, Liquid | 391.9 ± 3.2
272.46 K, Liquid | 392.3 ± 3.2
273.19 K, Liquid | 392.4 ± 3.2
274.38 K, Liquid | 392.9 ± 3.2
274.44 K, Liquid | 393 ± 3.2
275.37 K, Liquid | 393.2 ± 3.2
276.42 K, Liquid | 393.8 ± 3.2
276.91 K, Liquid | 394 ± 3.2
277.55 K, Liquid | 394.1 ± 3.2
278.4 K, Liquid | 394.5 ± 3.2
279.45 K, Liquid | 394.9 ± 3.2
279.73 K, Liquid | 394.9 ± 3.2
280.38 K, Liquid | 395.3 ± 3.2
281.91 K, Liquid | 396 ± 3.2
281.98 K, Liquid | 396.1 ± 3.2
282.36 K, Liquid | 396.2 ± 3.2
284.09 K, Liquid | 396.8 ± 3.2
284.34 K, Liquid | 397.1 ± 3.2
284.52 K, Liquid | 397.2 ± 3.2
286.27 K, Liquid | 397.8 ± 3.2
286.32 K, Liquid | 397.8 ± 3.2
287.05 K, Liquid | 398.3 ± 3.2
288.3 K, Liquid | 398.7 ± 3.2
288.45 K, Liquid | 398.8 ± 3.2
289.59 K, Liquid | 399.4 ± 3.2
290.28 K, Liquid | 399.7 ± 3.2
290.63 K, Liquid | 399.9 ± 3.2
292.13 K, Liquid | 400.5 ± 3.2
292.26 K, Liquid | 400.7 ± 3.2
292.81 K, Liquid | 401 ± 3.2
294.23 K, Liquid | 401.6 ± 3.2
294.66 K, Liquid | 401.8 ± 3.2
294.99 K, Liquid | 401.9 ± 3.2
296.21 K, Liquid | 402.5 ± 3.2
297.17 K, Liquid | 403.1 ± 3.3
297.19 K, Liquid | 403 ± 3.3
298.19 K, Liquid | 403.4 ± 3.3
299.72 K, Liquid | 404.3 ± 3.3
300.16 K, Liquid | 404.4 ± 3.3
302.14 K, Liquid | 405.5 ± 3.3
302.25 K, Liquid | 405.6 ± 3.3
304.12 K, Liquid | 406.5 ± 3.3
304.78 K, Liquid | 406.9 ± 3.3
306.09 K, Liquid | 407.7 ± 3.3
307.31 K, Liquid | 408.3 ± 3.3
308.07 K, Liquid | 408.7 ± 3.3
309.83 K, Liquid | 409.6 ± 3.3
310.05 K, Liquid | 409.6 ± 3.3
312.02 K, Liquid | 410.7 ± 3.3
312.36 K, Liquid | 411 ± 3.3
314 K, Liquid | 411.8 ± 3.3
314.88 K, Liquid | 412.3 ± 3.3
315.98 K, Liquid | 412.8 ± 3.3
317.41 K, Liquid | 413.8 ± 3.3
317.96 K, Liquid | 414 ± 3.3
319.93 K, Liquid | 415 ± 3.3
319.94 K, Liquid | 415 ± 3.3
321.92 K, Liquid | 416.3 ± 3.4
322.45 K, Liquid | 416.4 ± 3.4
323.9 K, Liquid | 417.2 ± 3.4
324.96 K, Liquid | 417.7 ± 3.4
325.88 K, Liquid | 418.2 ± 3.4
327.48 K, Liquid | 419.3 ± 3.4
327.86 K, Liquid | 419.2 ± 3.4
329.84 K, Liquid | 420.3 ± 3.4
330 K, Liquid | 420.6 ± 3.4
331.82 K, Liquid | 421.5 ± 3.4
332.51 K, Liquid | 422 ± 3.4
333.8 K, Liquid | 422.7 ± 3.4
335.02 K, Liquid | 423.5 ± 3.4
335.78 K, Liquid | 424 ± 3.4
337.54 K, Liquid | 424.9 ± 3.4
337.76 K, Liquid | 425.1 ± 3.4
339.74 K, Liquid | 426.2 ± 3.4
340.05 K, Liquid | 426.4 ± 3.4
341.72 K, Liquid | 427.3 ± 3.4
342.56 K, Liquid | 428 ± 3.5
343.7 K, Liquid | 428.7 ± 3.5
345.06 K, Liquid | 429.5 ± 3.5
345.68 K, Liquid | 429.8 ± 3.5
347.57 K, Liquid | 430.9 ± 3.5
347.66 K, Liquid | 431 ± 3.5
349.64 K, Liquid | 432.2 ± 3.5
350.07 K, Liquid | 432.4 ± 3.5
351.62 K, Liquid | 433.3 ± 3.5
352.57 K, Liquid | 433.9 ± 3.5
353.61 K, Liquid | 434.3 ± 3.5
355.06 K, Liquid | 435.2 ± 3.5
355.59 K, Liquid | 435.6 ± 3.5
357.56 K, Liquid | 436.8 ± 3.5
357.57 K, Liquid | 436.8 ± 3.5
359.55 K, Liquid | 438 ± 3.5
360.05 K, Liquid | 438.2 ± 3.5
362.54 K, Liquid | 439.8 ± 3.5
365.03 K, Liquid | 441.4 ± 3.6
367.52 K, Liquid | 443 ± 3.6
